This passage reports Kd results from paper PMC4383725 (Cell reports, 2015).

SMILES strings stand for the structures.

The target in this experiment is T1, oxysterol-binding protein (OSBP) (Homo sapiens, UniProt P22059).
T1 sequence (P22059 2-807): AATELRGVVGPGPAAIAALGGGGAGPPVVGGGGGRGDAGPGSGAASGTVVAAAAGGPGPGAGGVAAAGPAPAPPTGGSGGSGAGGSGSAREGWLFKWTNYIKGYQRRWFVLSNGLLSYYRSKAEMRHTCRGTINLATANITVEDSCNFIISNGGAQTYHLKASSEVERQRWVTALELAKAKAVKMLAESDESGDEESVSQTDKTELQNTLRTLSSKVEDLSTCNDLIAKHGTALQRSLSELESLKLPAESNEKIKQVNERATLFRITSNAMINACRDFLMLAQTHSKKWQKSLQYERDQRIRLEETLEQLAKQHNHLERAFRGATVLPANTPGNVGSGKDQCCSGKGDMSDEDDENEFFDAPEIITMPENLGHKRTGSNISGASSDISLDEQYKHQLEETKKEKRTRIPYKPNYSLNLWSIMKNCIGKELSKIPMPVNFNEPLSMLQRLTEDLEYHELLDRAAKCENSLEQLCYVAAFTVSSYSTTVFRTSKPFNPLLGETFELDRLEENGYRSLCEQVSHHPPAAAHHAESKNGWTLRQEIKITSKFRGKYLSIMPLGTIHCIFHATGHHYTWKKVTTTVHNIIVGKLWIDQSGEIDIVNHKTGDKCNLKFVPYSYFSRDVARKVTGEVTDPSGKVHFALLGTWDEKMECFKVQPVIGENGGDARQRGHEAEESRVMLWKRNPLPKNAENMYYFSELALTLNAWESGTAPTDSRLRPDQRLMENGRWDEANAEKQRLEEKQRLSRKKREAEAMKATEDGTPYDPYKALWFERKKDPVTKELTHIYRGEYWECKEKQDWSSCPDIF
Put plainly: MicroScale Thermophoresis with purified GFP-OSBP.

A word on the Kd: it is the concentration at which binding is half-saturated. Higher therefore signals weaker binding. Consider `CCC(C)n1ncn(-c2ccc(N3CCN(c4ccc(OCC5COC(Cn6cncn6)(c6ccc(Cl)cc6Cl)O5)cc4)CC3)cc2)c1=O` (stereo not shown) [ITZ, itraconazole], for which the dissociation constant Kd was roughly 430 nM.
